Test results: patent US11542316B2, “S-Arrestin peptides and therapeutic uses thereof” (APITOPE INTERNATIONAL NV, priority 2017, dated 2023)
Ends that are not written are not given here.

System: LN cells and splenocytes upon SAg or peptide restimulation
Experiment: Ex vivo tolerization experiment, DR2tg mice
Type: in vivo
Conditions: DR2 mice, IFN-γ
Procedure: FIG. 7: Ex vivo tolerisation protocol. Mice are injected subcutaneously in the flank with 0.1 μg/ml, 1 μg/ml and 10 μg/ml peptide on days −15, −13 and −11, followed by 3 injections of 100 μg/ml on days −8, −6 and −4 (escalating dose regime). On day 0, mice are immunized subcutaneously at the base of the tail with SAg/CFA or peptide/CFA. Mice are sacrificed 10 days after immunization to measure proliferation of LN cells and splenocytes upon SAg or peptide restimulation. LN, lymph nodes.
FIG. 11: Ex vivo tolerance induction by HIP-9K1-KKK apitope. DR2 mice are injected subcutaneously in the flank with 0.1 μg/ml, 1 μg/ml and 10 μg/ml HIP-9K1-KKK on days −15, −13 and −11, followed by 3 injections of 100 μg/ml on days −8, −6 and −4 (escalating dose regime). On day 0, mice are immunized subcutaneously at the base of the tail with HIP-9FL/CFA. Mice are sacrificed 10 days after immunization to measure proliferation of LN cells and splenocytes upon SAg or peptide restimulation. Data represent mean±SEM of the concentration values for the PBS-treated mice (black lines) and peptide-treated mice (color lines). IFN-γ production expressed as IFN-γ concentration (pg/ml). Two-way ANOVA was used to measure overall treatment effects on T cell activation and p-values are written in the graphs. Bonferonni post-hoc testing was used and significant differences are indicated in the graphs (* p<0.05; **** p<0.0001). LN, lymph nodes. (A) Tolerisation against SAg in LN. (B) Tolerisation against HIP-9FL and HIP-9K1-KKK in LN. (C) Tolerisation against SAg in spleen. (D) Tolerisation against HIP-9FL and HIP-9K1-KKK in spleen.
FIG. 13: Ex vivo tolerance induction by HIP-12G1-KKK apitope. DR2 mice are injected subcutaneously in the flank with 0.1 μg/ml, 1 μg/ml and 10 μg/ml HIP-12G1-KKK on days −15, −13 and −11, followed by 3 injections of 100 μg/ml on days −8, −6 and −4 (escalating dose regime). On day 0, mice are immunized subcutaneously at the base of the tail with HIP-12AK/CFA. Mice are sacrificed 10 days after immunization to measure proliferation of LN cells and splenocytes upon SAg or peptide restimulation. Data represent mean±SEM of the concentration values for the PBS-treated mice (black lines) and peptide-treated mice (color lines). IFN-γ production expressed as IFN-γ concentration (pg/ml). Two-way ANOVA was used to measure overall treatment effects on T cell activation and p-values are written in the graphs. Bonferonni post-hoc testing was used and significant differences are indicated in the graphs (** p<0.01; *** p<0.001: **** p<0.0001). LN, lymph nodes. (A) Tolerisation against HIP-12G1-KKK and HIP-12G1 in LN. (B) Tolerisation against HIP-12G1-KKK in spleen.
DR3tg or DR2tg mice were injected subcutaneously in the flank region with 0.1 μg, 1 μg and 10 μg of peptide on days −15, −13 and −11 respectively, followed by 3 injections of 100 μg peptide on days −8, −6 and −4 (dose escalation schedule). On day 0, the mice were immunised subcutaneously in the base of the tail with 50 μg antigen (parental peptide) emulsified in CFA (peptide/CFA). Ten days after immunisation, draining lymph nodes (LN) and spleens were harvested. LN cells and splenocytes were isolated and cultured in X-vivo 15 medium (supplemented with 2 mM L-glutamine, 50 U/mL penicillin and 50 U/mL streptomycin; Lonza) in 96-well flat bottom plates. To investigate antigen-induced cell proliferation, 0.5×10^6 cells/well were cultured (200 μl/well) for 72 hours with different antigen concentrations (0-25 μg/ml) or with 12.5 μg/ml purified protein derivative (PPD; priming control; Statens serum institut, Copenhagen, Denmark). After 72 hours, supernatant was harvested and stored at −80° C. until further analysis. IFN-γ concentrations in supernatants were assessed by cytokine ELISA (R&D Systems, Abingdon, UK) to measure cell activation.

Substance: KKKAFVEQVANVVLKKK-NH2 [HIP-9K1-KKK, KKKAFVEQVANVVLKKK]
- tolerization against the peptide itself / parental peptide (LN): tolerization induced
- tolerization against SAg (LN, escalating dose regime s.c.): tolerization induced
- tolerization against SAg (spleen): Tolerance is also induced
- tolerization against the peptide itself (spleen): Tolerance is also induced
